This is an account of results in patent US20240208961A1, “EIF4E INHIBITORS AND USES THEREOF” (PIC Therapeutics, Inc., priority 2022, published 2024).

Bounds are passed on as bounds.

Assay [1] has as its system ZR-75-1. The assay is described as follows: ZR-75-1 compound screening cell viability, Alamar Blue (Example 6). It counts as cell-based. To be noted: ZR-75-1 cells, Media 1% FBS, read-out: ZR-75-1 Cell Viability, 4 Days: IC50. In general terms: Resazurin is reduced to fluorescent resorufin, in cell work by metabolically active cells.
For assay [2], the system named is ZR-75-1. The assay is described as follows: Cell viability assay, adherent cell line, 5 day Alamar Blue (Example 8): ZR-75-1. It counts as cell-based. To be noted: ZR-75-1, Breast Cancer Cell Viability. How it is done: (§1) Cell viability assays were performed on certain compounds of the disclosure, according to the following procedure.
(§2) Cell line specific media conditions used:
(§3) The procedure for adherent cell line compound screening was as follows:
(§4) • Cells were seeded in 96-well cell culture treated tissue culture plates: ZR-75-1, NIHOVCAR3, T47D, and LOVO cells 4000 cells/well; and HPAFII 3000 cell/well
(§5) Day 3: Compound Dilution and Dosing
(§6) • 5-fold serial dilution (8 point) of each compound in DMSO 0-25 mM in compound storage plates was prepared (stored at −80° C. if not to be used immediately). • Cells were rinsed with 1% FBS Media (appropriate to cell line as described above) and replaced with 87.5 μL media prior to dosing. HPAFII was screened in normal 10% FBS Media. • DMSO compound dilution series was diluted in 1% FBS media (appropriate to cell line as described above)—2 μL in 248 μL to give an 8× final concentration. • Cells were dosed 12.5 μL/well in triplicate to give final dose curved on cells 0-25 μM. • Media blank 100 μL/well×8 was set up. • All plates were incubated at 37° C.
(§7) Day 8: 5 Day Viability Assay
(§8) • Alamar Blue viability reagent was added (10 μL per well) and incubated for 3 hours at 37° C. prior to fluorescence detection (Ex560 nm/Em590 nm) on a Varioskan Lux multimode plate reader.
(§9) Results from cell viability assays are summarized in Table 23, wherein A represents IC50≤1 μM; B represents 1 μM<IC50≤8 μM; and C represents IC50>8 μM. Blank cells indicate that the compound was not tested in a particular assay.

For another assay, the system named is LoVo. In words: Cell viability assay, adherent cell line, 5 day Alamar Blue (Example 8): LoVo. The class given is cell-based. The following applies: Homo sapiens, 120 h, Colorectal Cancer Cell Viability. The protocol:
as §1, §2, §3, §4, §5, §6, §7, §8, §9

Another assay concerns T47D. The assay is described as follows: Cell viability assay, adherent cell line, 5 day Alamar Blue (Example 8): T47D. It counts as cell-based. The following applies: Homo sapiens, 120 h, Breast Cancer Cell Viability. The protocol:
as §1, §2, §3, §4, §5, §6, §7, §8, §9

In a further assay the test system is MM.1S. The assay is described as follows: Cell viability assay, suspension cell line, 5 day Alamar Blue (Example 8): MM.1S. The class given is cell-based. To be noted: Homo sapiens, MM1.S, 120 h, Multiple Myeloma (Steroid Sensitive) Cancer Cell. How it is done: as §1, §2
(§10) The procedure for suspension cell line compound screening was as follows:
(§11) Day 1: Cell Seeding and Compound Dosing
as §6, with “• Cells were seeded 2×10^5 in 96-well cell culture treated tissue culture plates: 87.5 μL/well; MM.1 S, MM,1R, NCIH510A. • 5-fold” for “• 5-fold”, “to dosing. • DMSO” for “to dosing. HPAFII was screened in normal 10% FBS Media. • DMSO”
(§12) Day 6: 5 Day Viability Assay
as §8, §9

For the next assay, the system named is NCIH510A. In words: Cell viability assay, suspension cell line, 5 day Alamar Blue (Example 8): NCIH510A. The class given is cell-based. To be noted: Homo sapiens, NCI-H510A, 120 h, Small Cell Lung Cancer Cell Line. The protocol:
as §1, §2, §10, §11
as §6, with “• Cells were seeded 2×10^5 in 96-well cell culture treated tissue culture plates: 87.5 μL/well; MM.1 S, MM,1R, NCIH510A. • 5-fold” for “• 5-fold”, “to dosing. • DMSO” for “to dosing. HPAFII was screened in normal 10% FBS Media. • DMSO”
as §12, §8, §9

A further assay addresses T1, Human eIF4E (aa 28-217) (Homo sapiens, UniProt P06730).
T1 construct: Human eIF4E (aa 28-217) with a C-terminal His-tag; made in house
In words: 4G-eIF4E protein-based assay (TR-FRET, biotin labeled 4G2 peptide). The class given is binding. The protocol:
Human eIF4E ([…]) with a C-terminal His-tag was expressed in E. coli in inclusion bodies. The protein was solubilized with 8 M urea and purified under denaturing conditions using nickel-charged HisTrap HP columns (GE Healthcare). The purified protein was then refolded by diluting in 20 mM Hepes pH 7.0, 0.5 M NaCl, 1 mM DTT, […], 0.5 M arginine plus 6 M urea, and then dialyzing overnight into the same buffer without the urea. The protein was further dialyzed into 20 mM Hepes, pH 6.5, 50 mM NaCl, 1 mM EDTA, 1 mM DTT, and concentrated using Hitrap SP sepharose FF columns (GE Healthcare). The concentrated protein was dialyzed into 20 mM Hepes, pH 7.0, 0.5M NaCl, 5 mM DTT and […], and stored at -80° C. until use. Test compounds (3.43 mM stock in DMSO) were diluted 2-fold in series in DMSO (10 concentration points). Compound solutions (1.2 μL/well) were added into black 384-well polypropylene microplates (Matrix, Thermal Scientific). […] The samples were incubated at room temperature (20-23° C.) for 4 hours. Biotin labeled 4G2 peptide ([…])-NH2, 1.75 μM stock in DMSO) was diluted to 0.13 μM in Assay Buffer (without DTT) and 5 μL/well was added. The samples were incubated at room temperature for 20 min. Five microliters per well of 15 nM Eu-streptavidin (Eu-SA, Perkin Elmer) and 96 nM Allophycocyanin (APC)-anti His antibody (Columbia Biosciences) in Assay Buffer (without DTT) were then added and the samples were incubated at room temperature for 20 min. Assay signals were monitored by reading excitation at 340 nm and emission fluorescence at 615 nm and 665 nm on an Envision reader (Perkin Elmer). Normalized TR-FRET (time-resolved fluorescence resonance energy transfer) assay signal (Rn) was calculated by the formula: […] C=(Ac-Ba)/(Dc-Bd) • Where Ac is the fluorescence intensity of 1.5 nM Eu-SA in the assay buffer at 665 nm. IC50 values were calculated using xLFit program (IDBS).

For a further assay, the system named is MM.1R. In words: Cell viability assay, suspension cell line, 5 day Alamar Blue (Example 8): MM.1R. The class given is cell-based. The following applies: 120 h, Multiple Myeloma (Steroid Resistant) Cancer Cell. How it is done: as §1, §2, §10, §11
as §6, with “• Cells were seeded 2×10^5 in 96-well cell culture treated tissue culture plates: 87.5 μL/well; MM.1 S, MM,1R, NCIH510A. • 5-fold” for “• 5-fold”, “to dosing. • DMSO” for “to dosing. HPAFII was screened in normal 10% FBS Media. • DMSO”
as §12, §8, §9

The next assay has as its system HPAFII. The assay is described as follows: Cell viability assay, adherent cell line, 5 day Alamar Blue (Example 8): HPAFII. The class given is cell-based. The following applies: Homo sapiens, HPAF-II, 120 h, Pancreatic Cancer Cell. How it is done: as §1, §2, §3, §4, §5, §6, §7, §8, §9
A further assay has as its system NIHOVCAR3. The assay is described as follows: Cell viability assay, adherent cell line, 5 day Alamar Blue (Example 8): NIHOVCAR3. The class given is cell-based. The following applies: Homo sapiens, OVCAR-3, 120 h, OVCAR3, Ovarian Cancer Cell. How it is done: as §1, §2, §3, §4, §5, §6, §7, §8, §9

T1 sequence (P06730 28-217): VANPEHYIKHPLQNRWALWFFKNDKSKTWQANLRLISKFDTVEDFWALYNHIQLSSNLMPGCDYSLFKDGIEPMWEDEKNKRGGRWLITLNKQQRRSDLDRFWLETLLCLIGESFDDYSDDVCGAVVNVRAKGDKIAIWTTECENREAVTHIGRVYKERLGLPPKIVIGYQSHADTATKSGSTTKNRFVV

As usually defined, the IC50 is the point on the concentration scale where inhibition reaches its midpoint. On to “2-((4-(cyclopent-1-en-1-yl)-5-isobutylthiazol-2-yl)amino)-5-(thiophen-2-yl)nicotinic acid [Compound I-7]”, for which the IC50 in the assay on ZR-75-1 [1] is under 1000 nM; with ZR-75-1 [2] it was over 8 µM.

On to `CC(C)Cc1sc(Nc2ncc(-c3cccs3)cc2C(=O)O)nc1C1=CCC(F)(F)CC1` [Compound I-4], for which the IC50 in the assay with LoVo is at most 1000 nM; in the assay with T47D it was at most 1000 nM; in the assay on MM.1S it was at most 1000 nM; in the assay on NCIH510A, at most 1000 nM; in the assay with ZR-75-1 [1] (Homo sapiens, 96 h) it was under 1000 nM; against Human eIF4E (aa 28-217), 500 to 1000 nM. In addition, the IC50 in the assay on MM.1R was 1 to 8 µM; in the assay with ZR-75-1 [2] (Homo sapiens, 120 h), at most 1 µM; in the assay on HPAFII it was at most 1000 nM; with NIHOVCAR3, at most 1000 nM.

On to `COC(=O)c1cc(-c2cccs2)cnc1Nc1nc(C2=CCC(F)(F)CC2)c(CC(C)C)s1` [Compound I-5, methyl 2-((4-(4,4-difluorocyclohex-1-en-1-yl)-5-isobutylthiazol-2-yl)amino)-5-(thiophen-2-yl)nicotinate], for which the IC50 in the assay on ZR-75-1 [1] (Homo sapiens, 96 h) is over 8000 nM; in the assay with ZR-75-1 [2] (Homo sapiens, 120 h) it was over 8 µM.

As for `CC(C)Cc1sc(Nc2ncc(-c3cccs3)cc2C(=O)O)nc1C1CCCC1` [Compound I-6, 2-((4-cyclopentyl-5-isobutylthiazol-2-yl)amino)-5-(thiophen-2-yl)nicotinic acid], the IC50 in the assay on ZR-75-1 [1] (Homo sapiens, 96 h) was under 1000 nM; in the assay with ZR-75-1 [2] (Homo sapiens, 120 h), at most 1 µM.

Consider `CC(C)c1sc(Nc2ncc(-c3cccs3)cc2C(=O)O)nc1C1=CCCC1` [Compound I-9], for which the IC50 in the assay with ZR-75-1 [1] (Homo sapiens, 96 h) was under 1000 nM; in the assay on ZR-75-1 [2] (Homo sapiens, 120 h), at most 1 µM.

As to `CC(C)Cc1sc(Nc2ncc(-c3cccs3)cc2C(=O)O)nc1C1CC1` [Compound I-10], the IC50 in the assay on ZR-75-1 [1] (Homo sapiens, 96 h) lay in the range of 1000 to 8000 nM; in the assay on ZR-75-1 [2] (Homo sapiens, 120 h) it was 1 to 8 µM.

Turning to `O=C(O)c1cc(-c2cccs2)cnc1Nc1nc(C(F)(F)F)cs1` [Compound I-12], the concentration for half-maximal inhibition (IC50) is 1000 to 8000 nM with ZR-75-1 [1] (Homo sapiens, 96 h) and 1 to 8 µM with ZR-75-1 [2] (Homo sapiens, 120 h).

Take `C=C(C)c1nc(Nc2ncc(-c3cccs3)cc2C(=O)O)sc1CC(C)C` [Compound I-13]: the IC50 was in the range of 1000 to 8000 nM in the assay on LoVo; 1000 to 8000 nM with T47D; 1000 to 8000 nM in the assay on MM.1S; 1000 to 8000 nM in the assay on NCIH510A; 1000 to 8000 nM in the assay with ZR-75-1 [1] (Homo sapiens, 96 h); 500 to 1000 nM on Human eIF4E (aa 28-217). The IC50 was 1 to 8 µM with MM.1R; 1 to 8 µM in the assay with ZR-75-1 [2] (Homo sapiens, 120 h); 1000 to 8000 nM with HPAFII; 1000 to 8000 nM with NIHOVCAR3.

For the compound `Cc1nc(Nc2ncc(-c3cccs3)cc2C(=O)O)sc1C` [Compound I-14], the IC50 in the assay with ZR-75-1 [1] (Homo sapiens, 96 h) lay within 1000 to 8000 nM; with ZR-75-1 [2] (Homo sapiens, 120 h), 1 to 8 µM.

For `O=C(O)c1cc(-c2cccs2)cnc1Nc1nccs1` [Compound I-15], the IC50 in the assay on ZR-75-1 [1] (Homo sapiens, 96 h) is over 8000 nM; in the assay with ZR-75-1 [2] (Homo sapiens, 120 h), over 8 µM.
